The test relates to acetylcholine-bromide-induced abdominal constriction (writhing). Briefly: Mouse Acetylcholine-Bromide-Induced Abdominal Constriction Assay. Particulars: for ED50: po, read-out: ED50 (dose which inhibits writhing by 50%). In kind it is in vivo. As to the method:
Mouse Acetylcholine-Bromide-Induced Abdominal Constriction Assay:
The mouse acetylcholine-induced abdominal constriction assay, as described by Collier et al. in Brit. J. Pharmacol. Chem. Ther., 32:295-310, 1968, with minor modifications was the test used to assess analgesic potency. The test drugs or appropriate vehicle were administered orally (p.o.) and 30 minutes later the animals received an intraperitoneal (i.p.) injection of 5.5 mg/kg acetylcholine bromide (Matheson, Coleman and Bell, East Rutherford, NJ). The mice were then placed in groups of four into glass bell jars and observed for a ten minute observation period for the occurrence of a writhe (defined as a wave of constriction and elongation passing caudally along the abdominal wall, accompanied by a twisting of the trunk and followed by extension of the hind limbs). The percent inhibition of writhing (equated to % analgesia) was calculated as follows: The % inhibition of writhing, i.e., % analgesia, is equal to the difference between the No. of control animals writhing and the No. of drug-treated animals writhing times 100 divided by the No. of control animals writhing.
At least 20 animals were used for control and in each of the drug treated groups. Four doses were used to determine each dose response curve and ED50 (that does which inhibits writhing by 50%). The ED50 values and their 95% fiducial limits were determined by a computer assisted probit analysis.
On the technique in general: Writhing tests count abdominal constrictions after an irritant is injected.

The results in this text go back to US4716172A, “4-substituted octahydroquinolizine analgesic compounds and octahydroquinolizinium intermediates” (McNeilab, Inc., priority 1986, dated 1987).

Structures are written as SMILES. Like-named read-outs stand apart in the source and are kept apart here.

Regarding `Brc1ccccc1[C@@H]1CCC[C@@H]2CCCCN21.Cl` (relative stereo) [Example 5e, trans-4(2-Bromophenyl)octahydro-2H-quinolizine Hydrochloride], the ED50 (usually the dose at which the effect has come halfway, by size or by number of responders) (Mus musculus) was found to be 23 mg/kg.
Regarding `Cl.c1ccc(Oc2ccc([C@@H]3CCC[C@@H]4CCCCN43)cc2)cc1` (relative stereo) [Example 2e, trans-Octahydro-4-(4-phenoxyphenyl)-2H-quinolizine Hydrochloride], the ED50 (mouse, p.o., 30 minutes before i.p. 5.5 mg/kg acetylcholine bromide, ten minute observation) was 8 mg/kg.
Take `Cl.Ic1ccccc1[C@@H]1CCC[C@@H]2CCCCN21` (relative stereo) [Example 4e, trans-Octahydro-4-(2-iodophenyl)-2H-quinolizine Hydrochloride]: the 50% effective dose (ED50) (Mus musculus) is 30 mg/kg.
Still for that read-out and setting: in the case of `Clc1cccc(Cl)c1[C@@H]1CCC[C@@H]2CCCCN21.[O-][Cl+3]([O-])([O-])O` (relative stereo) [Example 1e, trans-4-(2,6-dichlorophenyl)octahydro-2H-quinolizine perchlorate] it was 5 mg/kg.
For `COc1cccc([C@@H]2CCC[C@@H]3CCCCN32)c1.Cl` (relative stereo) [Example 3e, trans-Octahydro-4-(3-methoxyphenyl)-2H-quinolizine Hydrochloride], the “% inhibition of writhing (% analgesia), printed in ED50 column” value (mouse, p.o., at 30 mg/Kg, 30 minutes before i.p. 5.5 mg/kg acetylcholine bromide, ten minute observation) is 40%.
